Columns and labels:
caspases 3 and 7 = test: Caspases 3 and 7 activity assay in rat gut mucosa homogenate after hemorrhagic shock; type: in vivo; details: intraluminal 10 μM versus vehicle
Experimental: (§1) After 2 h of shock, the animals were euthanized with an intracardiac KCl bolus injection. The ileum was rapidly excised from the ileocecal valve to the most proximal gut segment. The tips of each segment were discarded. In order to assay caspases 3 and 7 activity and phospholipids peroxidation, mucosa samples were collected from gut segments immediately after hemorrhage and stored at −80° C. For permeability measurements, each segment was converted into an everted gut sac, as previously described by Wattanasirichaigoon et al., see Wattanasirichaigoon, S. et al., Effect of mesenteric ischemia and reperfusion or hemorrhagic shock on intestinal mucosal permeability and ATP content in rats, SHOCK, 12:127-133 (1999).
Caspases 3 and 7 activity assay. Caspases 3 and 7 activity was measured using a commercially available assay kit, CASPASE GLO™ 3/7 assay kit (PROMEGA, Madison, Wis.). […] At the end of incubation period, the luminescence of each sample was measured using a plate reading chemiluminometer (ML1000, DYNATECH LABORATORIES, Horsham, Pa.). Activity of caspases 3 and 7 was expressed as luminescence intensity (arbitrary units per mg protein). Protein concentrations were determined using the BIORAD assay (BIO-RAD LABORATORIES, Inc., Hercules, Calif.). […]

[1] = test system: phospholipids in intestinal mucosa; test: Assay for peroxidation of phospholipids in gut mucosa after hemorrhagic shock; type: in vivo, rat; details: intraluminal 10 μM, 2 h HS
Experimental: as §1
Assay for peroxidation of phospholipids. Gut mucosal samples were homogenized. Lipids were extracted from homogenates using the Folch procedure, see M. Lees and G. H. Sloan-Stanley, A simple method for isolation and purification of total lipids from animal tissue, J. BIOL. CHEM. 226:497-509 (1957), and resolved by 2D HPTLC (High Performance Thin Layer Chromatography) as previously described, see Kagan, V. E. et al., A role for oxidative stress in apoptosis: Oxidation and externalization of phosphatidylserine is required for macrophage clearance of cell undergoing Fas-mediated apoptosis, J. IMMUMOL. 169:487-489 (2002). Spots of phospholipids were scraped from HPTLC plates and phospholipids were extracted from silica. Lipid phosphorus was determined by a micro-method, see Bottcher, C. J. F. et al., A rapid and sensitive sub-micro phosphorus determination, ANAL. CHIM. ACTA 24: 203-204 (1961).
Oxidized phospholipids were hydrolyzed by pancreatic phospholipase A2 (2 U/μl) in 25 mM phosphate buffer containing 1 mM CaCl2, 0.5 mM EDTA and 0.5 mM sodium dodecyl sulfate (SDS) (pH 8.0, at room temperature for 30 min). Fatty acid hydroperoxides formed were determined by fluorescence HPLC of resorufin stoichiometrically formed during their microperoxidase 11-catalized reduction in presence of Amplex Red (for 40 min at 4° C.) (8). Fluorescence HPLC (ECLIPSE XDB-C18 column, 5 μm, 150×4.6 mm, mobile phase was composed of 25 mM disodium phosphate buffer (pH 7.0)/methanol (60:40 v/v); excitation wavelength 560 nm, emission wavelength 590 nm) was performed on a SHIMADZU LC-100AT HPLC system equipped with fluorescence detector (RF-10Ax1) and autosampler (SIL-10AD).
In the subsequent series of in vivo studies, the affect of intraluminal XJB-5-131 on hemorrhage-induced peroxidation of phospholipids in intestinal mucosa was examined. […] In a preferred embodiment, 0.3 mL of test solution filled the lumen of each ileal compartment. […]

CC(C)C[C@@H](/C=C/[C@H](Cc1ccccc1)C(=O)N1CCC[C@H]1C(=O)N[C@H](C(=O)N[C@@H](CCCNC(=O)OCc1ccccc1)C(=O)NC1CC(C)(C)N([O])C(C)(C)C1)C(C)C)NC(=O)OC(C)(C)C [XJB-5-131]
caspase 3 and 7 activity in ileal mucosa after hemorrhagic shock (caspases 3 and 7): significantly decreased
hemorrhage-induced peroxidation of cardiolipin (CL) [1]: significantly ameliorated
peroxidation of phosphatidylcholine (PC) [1]: no effect
peroxidation of phosphatidylethanolamine (PE) [1]: small effect
peroxidation of phosphatidylserine (PS) [1]: no effect
